The results in this text go back to patent US20260001868A1, “HETEROCYCLIC COMPOUND CAPABLE OF INHIBITING PRMT5-MTA AND USE THEREOF” (Xizang Haisco Pharmaceutical Co., Ltd., priority 2022, published 2026).

One series addresses PRMT5⋅MTA (Homo sapiens (Human), UniProt O14744). In words: PRMT5 MTA enzyme activity test (Alpha detection). It is filed as biochemical. Particulars: PRMT5/MEP50 1 nM with MTA 1 μM. Here is the method:
(§1) 1× test buffer (10 mM Tris, 1 mM DTT, 0.01% BSA, 0.01% Tween-20, adjusted to pH 8.0) was prepared. The test compound was dissolved in DMSO to prepare a 10 mM mother liquor, and the mother liquor was diluted to a 100-fold final concentration. 100 nL of the compound was added to each well of the administration group, and 100 nL of DMSO solution was added to blank wells and negative control wells. Then, 5 μL of a solution of PRMT5/MEP50 (BPS, Cat #31921) (final concentration: 1 nM) and MTA (final concentration: 1 μM) was added to the wells of the administration group and negative control wells, and 5 μL of 1× test buffer was added to the blank wells. Incubation was performed at room temperature for 15 minutes. […] 1× Epigenetics buffer (PerkinElmer, Cat #AL008F) was prepared and used for diluting acceptor microbeads and donor microbeads. 15 μL of acceptor microbeads (final concentration: 10 μg/mL; PerkinElmer, Cat #AL150C) and donor microbeads (final concentration: 10 μg/mL; PerkinElmer, Cat #AS106M) were added and incubated at room temperature for 1 hour in the dark. Then, detection was performed using the Alpha module of the reader Enspire microplate.
Based on the obtained data, the inhibition rate was calculated in Excel according to: inhibition rate (%)=(maximum value negative control−detection signal value)/(maximum value negative control−minimum value blank control)×100, and IC50 values were fitted by using XL-Fit.

In a further series the target is PRMT5/MEP50 (Homo sapiens (Human), UniProt O14744). Description: PRMT5 enzyme activity test (Alpha detection). It is filed as biochemical. Particulars: PRMT5/MEP50 1 nM, absence of MTA. Here is the method: as §1, with “a” for “a solution of”, “#31921) enzyme solution” for “#31921)”, “nM)” for “nM) and MTA (final concentration: 1 μM)”, “microplate. Based on the obtained data, the inhibition rate was calculated in Excel according to: inhibition rate (%)=(maximum value negative control−detection signal value)/(maximum value negative control−minimum value blank control)×100, and IC50 values were fitted by using XL-Fit.” for “microplate.”

The test system of a further series is MIAPACA-2 cells. Description: MIAPACA-2 cell proliferation inhibition experiment. It is filed as cell-based. The text has this: (§2) The chemiluminescence readings were detected by a microplate reader.
A further series relates to HCT-116 cells. Description: HCT-116 cell proliferation inhibition experiment. It is filed as cell-based.
Source text: as §2

Series [1] deals with SDMA production in HCT-116 cells. In words: SDMA detection in HCT-116 cells. To be noted: 3 days incubation. The class given is cell-based.
Protocol: HCT-116 cells were cultured in an RPMI 1640 culture medium (ATCC, Cat #30-2001; supplemented with 10% FBS and 1% double antibody) until the confluence reached about 85%, and then the cells were plated. The culture medium was discarded, and the cells were rinse with 1×PBS and digested by trypsin (Gibco, Cat #15400-054). When the cells became round and began to fall off, the digestion was terminated by adding the culture medium. The cells were pipetted, transferred to a sterile centrifuge tube and centrifuged at 1000 rpm for 3 minutes, and after the centrifugation, the supernatant was discarded. The cells were resuspended by adding the culture medium to the centrifuge tube and then counted. According to the counting results, the cell suspension was adjusted to an appropriate concentration and poured into a loading slot. 100 μL of the cell suspension was added to each well of the 96-well plate. The compound was dissolved in DMSO to 10 mM and stored for later use. […] 100 μL of the Immobilon Forte Western HRP substrate (Millipore, Cat #WBLUF0500) was added to each well and incubated with shaking for 15 minutes, followed by chemiluminescence detection using the BMG microplate reader. After data normalization (SDMA reading/SMD3 reading), Graphpad Prism 8.3.0 software was used to plot the data, and the IC50 value was calculated.
Details of series [2]: species or system beagle dogs. Particulars: dog, in vivo. Here is the method: 10.1 Experimental animals: male beagle dogs, about 8-11 kg, 6 beagle dogs/compound, purchased from Beijing Marshall Biotechnology Co., Ltd.
10.2 Experimental method: On the day of the experiment, (6× number of test compounds (n)) beagle dogs were randomly divided into groups according to their body weights. The animals were fasted but with water available for 12 to 14 h one day before the administration and were fed 4 h after the administration. Administration was carried out according to Table 8.
Before and after the administration, 1 mL of blood was taken from the jugular veins or limb veins, and placed in an EDTAK2 centrifuge tube. Centrifugation was performed at 5000 rpm at 4° C. for 10 min, and the plasma was collected. The blood collection time points for the intravenous administration group and intragastric administration group were 0 min, 5 min, 15 min, 30 min, 1 h, 2 h, 4 h, 6 h, 8 h, 10 h, 12 h and 24 h. Before analysis and detection, all samples were stored at −80° C., and a quantitative analysis of samples was performed using LC-MS/MS.

Series [3] relates to SDMA production in HCT-116 MTAP−/− cells. To be noted: read-out: HCT-116 MTAP−/− SDMA (IC50); 3 days incubation.
Protocol: HCT-116 MTAP−/− cells were cultured in an RPMI 1640 culture medium (ATCC, #30-2001; supplemented with 10% FBS and 1% double antibody) until the confluence reached about 85%, and then the cells were plated. The culture medium was discarded, and the cells were rinse with 1×PBS and digested by trypsin (Gibco, Cat #15400-054). When the cells became round and began to fall off, the digestion was terminated by adding the culture medium. The cells were pipetted, transferred to a sterile centrifuge tube and centrifuged at 1000 rpm for 3 minutes, and after the centrifugation, the supernatant was discarded. The cells were resuspended by adding the culture medium to the centrifuge tube and then counted. According to the counting results, the cell suspension was adjusted to an appropriate concentration and poured into a loading slot. 100 μL of the cell suspension was added to each well of the 96-well plate. The compound was dissolved in DMSO to 10 mM and stored for later use. […] 100 μL of the Immobilon Forte Western HRP substrate (Millipore, Cat #WBLUF0500) was added to each well and incubated with shaking for 15 minutes, followed by chemiluminescence detection using the BMG microplate reader. After data normalization (SDMA reading/SMD3 reading), Graphpad Prism 8.3.0 software was used to plot the data, and the IC50 value was calculated.
Where [4] appears, read: Homo sapiens, MIA PaCa-2, 120 h, read-out: MIAPACA-2 (day 5 GI50).
Where [5] appears, read: day 5, read-out: MIAPACA-2 (day 5 GI50).
The mark [6] stands for this setting: day 10, read-out: MIAPACA-2 (day 10 GI50).

pIC50: −log10 of the molar value. Like-named read-outs stand apart in the source and are kept apart here.

Chain of PRMT5⋅MTA (O14744 whole entry): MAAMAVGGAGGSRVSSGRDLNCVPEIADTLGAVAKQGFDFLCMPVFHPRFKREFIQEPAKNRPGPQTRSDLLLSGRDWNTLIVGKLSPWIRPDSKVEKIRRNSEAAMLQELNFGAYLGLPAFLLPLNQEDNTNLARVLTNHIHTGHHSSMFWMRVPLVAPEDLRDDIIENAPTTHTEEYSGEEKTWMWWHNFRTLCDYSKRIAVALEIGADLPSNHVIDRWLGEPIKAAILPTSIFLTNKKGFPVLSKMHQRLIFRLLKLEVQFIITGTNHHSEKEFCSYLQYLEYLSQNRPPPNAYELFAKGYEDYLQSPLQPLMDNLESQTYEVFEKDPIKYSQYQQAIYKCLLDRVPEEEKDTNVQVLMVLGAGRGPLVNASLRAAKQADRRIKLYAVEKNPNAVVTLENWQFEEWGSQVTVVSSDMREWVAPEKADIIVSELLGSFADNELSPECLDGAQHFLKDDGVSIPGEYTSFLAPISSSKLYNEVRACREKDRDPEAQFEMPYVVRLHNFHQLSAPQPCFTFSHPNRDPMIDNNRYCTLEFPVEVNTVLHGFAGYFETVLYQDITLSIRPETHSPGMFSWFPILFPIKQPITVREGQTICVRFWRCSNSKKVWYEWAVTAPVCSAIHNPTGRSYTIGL
Chain of PRMT5⋅MTA (Q9BQA1 whole entry partner): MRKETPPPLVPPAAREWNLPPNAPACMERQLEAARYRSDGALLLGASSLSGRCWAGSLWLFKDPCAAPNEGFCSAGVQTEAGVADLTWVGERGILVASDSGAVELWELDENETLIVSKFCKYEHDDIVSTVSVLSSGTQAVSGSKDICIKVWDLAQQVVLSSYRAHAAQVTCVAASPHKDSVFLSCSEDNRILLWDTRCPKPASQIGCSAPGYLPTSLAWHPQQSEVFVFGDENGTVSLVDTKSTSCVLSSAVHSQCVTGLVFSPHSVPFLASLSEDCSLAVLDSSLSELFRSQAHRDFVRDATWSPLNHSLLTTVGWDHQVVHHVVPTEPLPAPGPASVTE
Chain of PRMT5/MEP50 (O14744 whole entry): as the sequence (O14744 whole entry) above
Chain of PRMT5/MEP50 (Q9BQA1 whole entry partner): as the sequence (Q9BQA1 whole entry partner) above

Take `Cn1ncc(-c2ccc3c(=O)[nH]cc(CN)c3c2)c1-c1c(F)c(Cl)cc(OC2CC2)c1C#N` [Compound 1, 2-(4-(4-(aminomethyl)-1-oxo-1,2-dihydroisoquinolin-6-yl)-1-methyl-1H-pyrazol-5-yl)-4-chloro-6-cyclopropoxy-3-fluorobenzonitrile]: the pIC50 at PRMT5⋅MTA (read-out: PRMT5•MTA) was 8.00 to 9.00; against PRMT5/MEP50 it was 7.30 to 8.00.
Consider `Cn1ncc(-c2ccc3c(=O)[nH]c(CN)nc3c2)c1-c1c(F)c(Cl)cc(OC2CC2)c1C#N` [Compound 5, 2-(4-(2-(aminomethyl)-4-oxo-3,4-dihydroquinazolin-7-yl)-1-methyl-1H-pyrazol-5-yl)-4-chloro-6-cyclopropoxy-3-fluorobenzonitrile], for which the GI50 was less than 50 nM with MIAPACA-2 cells (setting [4]) and less than 50 nM with MIAPACA-2 cells (Homo sapiens, MIA PaCa-2, 240 h, read-out: MIAPACA-2 (day 10 GI50)).
As to `Cn1ncc(-c2ccc3c(=O)[nH]c(CN)nc3c2)c1-c1c(F)c(Cl)cc(OC2CC2)c1C#N` [Compound 11, (2S)-2-(4-(2-(aminomethyl)-4-oxo-3,4-dihydroquinazolin-7-yl)-1-methyl-1H-pyrazol-5-yl)-4-chloro-6-cyclopropoxy-3-fluorobenzonitrile], the GI50 with MIAPACA-2 cells (setting [5]) and in the series on MIAPACA-2 cells (setting [6]) was less than 50 nM in each case.
Consider `Cn1ncc(-c2ccc3c(=O)[nH]c(CN)nc3c2)c1-c1c(F)c(Cl)cc(OC2(C)CC2)c1C#N` [Compound 14, (2S)-2-(4-(2-(aminomethyl)-4-oxo-3,4-dihydroquinazolin-7-yl)-1-methyl-1H-pyrazol-5-yl)-4-chloro-3-fluoro-6-(1-methylcyclopropoxy)benzonitrile], for which the GI50 with MIAPACA-2 cells (setting [5]) is less than 50 nM.
Turning to `Cn1ncc(-c2cc(N3CCC3)c3c(=O)[nH]nc(CN)c3c2)c1-c1c(F)c(Cl)cc(OC2CC2)c1C#N` [Compound 22, 2-(4-(4-(aminomethyl)-8-(azetidin-1-yl)-1-oxo-1,2-dihydrophthalazin-6-yl)-1-methyl-1H-pyrazol-5-yl)-4-chloro-6-cyclopropoxy-3-fluorobenzonitrile], the GI50 in the series with MIAPACA-2 cells (setting [4]) is less than 50 nM.
For the molecule `C=Cc1cc(-c2cnn(C)c2-c2c(F)c(Cl)cc(OC3(C)CC3)c2C#N)cc2c(CN)n[nH]c(=O)c12` [Compound 30, (2R)-2-(4-(4-(aminomethyl)-1-oxo-8-vinyl-1,2-dihydrophthalazin-6-yl)-1-methyl-1H-pyrazol-5-yl)-4-chloro-3-fluoro-6-(1-methylcyclopropoxy)benzonitrile], the pIC50 is 9.10 at PRMT5⋅MTA (read-out: IC50 value for PRMT5⋅MTA); greater than 9.00 on PRMT5⋅MTA (read-out: PRMT5•MTA); 8.00 to 9.00 on PRMT5/MEP50; 6.30 in series [1]; 8.47 in series [3]. For the same molecule, the GI50 in the series with MIAPACA-2 cells (setting [5]) was less than 50 nM; in the series on MIAPACA-2 cells (setting [6]) it was less than 50 nM; in the series on HCT-116 cells (day 5, read-out: HCT-116 (day 5 GI50)) it was greater than 500 nM; in the series on HCT-116 cells (day 10, read-out: HCT-116 (day 10 GI50)), greater than 500 nM; with HCT-116 MTAP−/− cells (read-out: HCT-116 MTAP−/− (day 5 GI50), day 5) it was 38.2 nM; with HCT-116 MTAP−/− cells (read-out: HCT-116 MTAP−/− (day 10 GI50), day 10) it was 19.9 nM. This molecule also returned a CL in series [2] (iv, 5 mg/kg) of 0.313 mL/min/kg. Moreover, the AUC0-t in series [2] (po, 10 mg/kg) is 178.458 µg·h/mL. The T1/2 in series [2] (po, 10 mg/kg) turned out to be 16.1 h.
